The text below walks through data of patent US4346087A, “Antibacterial surface active agent containing azaalkenelactam” (priority 1979, dated 1982).

What all share (type): cell-based
The subject of test [1] is Escherichia coli NIHJ. Nature of the test: MIC against Escherichia coli NIHJ. From the text:
(§1) Below are described the antibacterial activities of the compounds in the compositions according to this invention.
(§2) The testing method complied with the standard method of Japan Sociaty of Chemotherapy.

For test [2], the system named is Staphylococcus aureus FDA 209P. Nature of the test: MIC against Staphylococcus aureus FDA 209P.
Source text: as §1, §2

The subject of test [3] is Desulfovibrio desulfuricans IFO 13699. Kind of test: MIC against Desulfovibrio desulfuricans.
Source text: as §1, §2

The mark [4] stands for this setting: Staphylococcus aureus, FDA209P, 24 h.
Where [5] appears, read: Desulfovibrio desulfuricans, IFO13699, 24 h.
The mark [6] stands for this setting: Escherichia coli, Table 2, derivatives having a carboxylate radical, heart infusion agar, 37° C., 24 hours, read-out: MIC.
Where [7] appears, read: Escherichia coli, Table 1, azaalkenelactams, heart infusion agar, 37° C., 24 hours, read-out: MIC.
Where [8] appears, read: Staphylococcus aureus, FDA209P, Table 1, azaalkenelactams, heart infusion agar, 37° C., 24 hours, read-out: MIC.
Setting [9] is: Table 1, azaalkenelactams, heart infusion agar, 37° C., 24 hours.
Setting [10] is: Table 2, derivatives having a carboxylate radical, heart infusion agar, 37° C., 24 hours.
Setting [11] is: Staphylococcus aureus, FDA209P, Table 2, derivatives having a carboxylate radical, heart infusion agar, 37° C., 24 hours, read-out: MIC.

Converted amounts (≈) assume the structure as drawn. Where two headings read alike, the source gives them in different places.

On to “1-behenoyloxypropyl-3-methyl-1-aza-5-azoniacyclooct-4-en-2-one-5-acetate”, for which the MIC was 100 µg/mL in test [1], 50 µg/mL in test [2] and 25 µg/mL in test [3].

With `CC1=[N+](CC(=O)[O-])CCN(CC(C)OCC(C)OCC(C)OCc2ccc(C)cc2)C(=O)C1` (stereo not drawn) [4-methylbenzylpoly(2 moles)oxypropyleneoxypropyl-7-methyl-1-azonia-4-azacyclohept-7-en-5-one-1-acetate], the MIC in test [1] (Escherichia coli, 24 h) was found to be 400 µg/mL (≈ 865 µM); in test [2] (setting [4]), 50 µg/mL (≈ 108 µM); in test [3] (setting [5]) it was 50 µg/mL (≈ 108 µM).

Take `CCCCCCCCOCCCN1CC[N+](CC(=O)[O-])=C(C)CC1=O` [4-octoxypropyl-7-methyl-1-azonia-4-azacyclohept-7-en-5-one-1-acetate]: the MIC in test [1] (setting [6]) is 1600 µg/mL (≈ 4510 µM); in test [2] (setting [4]), 50 µg/mL (≈ 141 µM); in test [3] (setting [5]), 50 µg/mL (≈ 141 µM).

Turning to `CCCCCCCCCc1ccc(OCC(O)CNCCNCCNCCN2CCN=CC(C)C2=O)cc1` (stereo not drawn) [Example 52, 4-nonylphenoxy(2-hydroxy)propylaminoethylaminoethylaminoethyl-6-methyl-3,6-dihydro-2H-1,4-diazepin-5-one], the MIC in test [1] (setting [7]) is 100 µg/mL (≈ 188 µM); in test [2] (setting [8]) it was 100 µg/mL (≈ 188 µM); in test [3] (setting [5]), 50 µg/mL (≈ 94 µM).

On to `CCCCCCCC/C=C\CCCCCCCC(=O)NCCN1CC[N+](CC(=O)[O-])=C(C)CC1=O` [4-oleamidoethyl-7-methyl-1-azonia-4-azacyclohept-7-en-5-one-1-acetate], for which the figures for the MIC in test [1] (setting [6]), in test [2] (setting [4]) and in test [3] (setting [5]) were 3200 µg/mL (≈ 6510 µM), 25 µg/mL (≈ 50.8 µM) and 12.5 µg/mL (≈ 25.4 µM), respectively.

`CCCCCCCCCCC(O)CN1CCCN=CC(C)C1=O` (stereo not drawn) [Example 45, 1-(2-hydroxy)dodecyl-3-methyl-3,6,7,8-tetrahydro-1,5-diazocin-2-one]: the MIC in test [1] (setting [9]) worked out at 800 µg/mL (≈ 2470 µM); in test [2] (setting [9]), 100 µg/mL (≈ 308 µM); in test [3] (setting [9]) it was 50 µg/mL (≈ 154 µM).

With `CCCCCCCCCCCC(=O)OCCN1CC[N+](CC(=O)[O-])=C(C)CC1=O` [4-lauroyloxyethyl-7-methyl-1-azonia-4-azacyclohept-7-en-5-one-1-acetate], the MIC in test [1] (setting [6]) was found to be 3200 µg/mL (≈ 7790 µM); in test [2] (setting [4]), 400 µg/mL (≈ 974 µM); in test [3] (setting [5]), 25 µg/mL (≈ 60.9 µM).

In the case of “1-hydroxyethyl-2-undecylimidazolineumbetaine [reference compound]”, the MIC in test [1] (setting [10]) was not below 10000 µg/mL; in test [2] (setting [10]), 3600 µg/mL; in test [3] it was 400 µg/mL.

As to `CCCCCCCCCCCCCCCCN1CCN=C(C)CC1=O` [Example 5, 4-hexadecyl-7-methyl-3,6-dihydro-2H-1,4-diazepin-5-one], the MIC in test [1] (setting [7]) was 3200 µg/mL (≈ 9130 µM); in test [2] (setting [4]), 12.5 µg/mL (≈ 35.7 µM); in test [3] (setting [5]), 6.25 µg/mL (≈ 17.8 µM).

Take `CCCCCCCCCc1ccc(OCC(O)CNCCNCCNCCN2CC[N+](CC(=O)[O-])=CC(C)C2=O)cc1` (stereo not drawn) [4-nonylphenoxy(2-hydroxy)propylaminoethylaminoethylaminoethyl-6-methyl-1-azonia-4-azacyclohept-7-en-5-one-1-acetate]: the MIC in test [1] (Escherichia coli, 24 h) is 400 µg/mL (≈ 678 µM); in test [2] (setting [4]) it was 200 µg/mL (≈ 339 µM); in test [3] (setting [5]) it was 50 µg/mL (≈ 84.8 µM).

`CCCCCCCC/C=C\CCCCCCCC(=O)OCCN1CCN=C(C)CC1=O` [Example 13, 4-oleoyloxyethyl-7-methyl-3,6-dihydro-2H-1,4-diazepin-5-one]: the MIC in test [1] (setting [7]) turned out to be 1600 µg/mL (≈ 3680 µM); in test [2] (setting [4]), 100 µg/mL (≈ 230 µM); in test [3] (setting [5]), 12.5 µg/mL (≈ 28.8 µM).

Regarding `CCCCCCCCCCCCCCNCCN1CC[N+](CC(=O)[O-])=CCCC1=O` [4-tetradecylaminoethyl-4-aza-1-azoniacyclooct-8-en-5-one-1-acetate], the MIC in test [1] (Escherichia coli, 24 h) came to 100 µg/mL (≈ 236 µM); in test [2] (setting [11]) it was 3.12 µg/mL (≈ 7.36 µM); in test [3] (setting [5]), 6.25 µg/mL (≈ 14.8 µM).

As to `CCCCCCCCCCCCC(O)CN1CCC[N+](CC(=O)[O-])=C(C)CC1=O` (stereo not drawn) [1-(2-hydroxy)tetradecyl-4-methyl-1-aza-5-azoniacyclooct-4-en-2-one-5-acetate], the MIC worked out at 100 µg/mL (≈ 244 µM) in test [1] (Escherichia coli, 24 h); 25 µg/mL (≈ 60.9 µM) in test [2] (setting [4]); 6.25 µg/mL (≈ 15.2 µM) in test [3] (setting [5]).

For `CCCCCCCCCCCCCCCCCCCCCC(=O)OCCCN1CCCN=CC(C)C1=O` (stereo not drawn) [Example 51, 1-behenoyloxypropyl-3-methyl-3,6,7,8-tetrahydro-1,5-diazocin-2-one], the MIC amounted to 100 µg/mL (≈ 192 µM) in test [1] (setting [9]), 25 µg/mL (≈ 48 µM) in test [2] (setting [9]) and 12.5 µg/mL (≈ 24 µM) in test [3].

`CCCCCCCCCCCCN1CCC[N+](CC(=O)[O-])=CC(C)C1=O` (stereo not drawn) [1-dodecyl-3-methyl-1-aza-5-azoniacyclooct-4-en-2-one-5-acetate]: the MIC in test [1] (setting [6]) amounted to 1600 µg/mL (≈ 4370 µM); in test [2] (setting [4]), 50 µg/mL (≈ 136 µM); in test [3] (setting [5]), 25 µg/mL (≈ 68.2 µM).

For the compound `CCCCCCCCCCCCCCNCCN1CC[N+](C(C)C(=O)[O-])=CCC(C)C1=O` (stereo not drawn), the MIC is 100 µg/mL (≈ 221 µM) in test [1] (Escherichia coli, 24 h); 6.25 µg/mL (≈ 13.8 µM) in test [2] (setting [4]); 6.25 µg/mL (≈ 13.8 µM) in test [3] (setting [5]).

As to `CCCCCCCCCCCCCCCCCCCCC(O)CNCCNCCN1CCCN=C(C)CC1=O` (stereo not drawn) [Example 30, 1-(2-hydroxy)docosylaminoethylaminoethyl-4-methyl-3,6,7,8-tetrahydro-1,5-diazocin-2-one], the MIC in test [1] (Escherichia coli, 24 h) is 25 µg/mL (≈ 45.4 µM); in test [2] (setting [4]), 12.5 µg/mL (≈ 22.7 µM); in test [3] (Desulfovibrio desulfuricans, IFO13699, Table 1, azaalkenelactams, heart infusion agar, 37° C., 24 hours, read-out: MIC), 3.12 µg/mL (≈ 5.66 µM).

With `CCCCCCCC/C=C\CCCCCCCCNCCCNC(=O)CCCCCCC/C=C\CCCCCCCC` [Oleylaminopropyl oleamide, oleylaminopropyloleamide, reference compound], the results for the MIC in test [1] (setting [7]), in test [2] (setting [8]) and in test [3] (setting [5]) were not below 10000 µg/mL, not below 10000 µg/mL and 100 µg/mL (≈ 170 µM), respectively.

Take `CCCCCCCCCCCC[N+](C)(C)CC(=O)[O-]` [Lauryldimethylbetaine, lauryldimethylbetaine, reference compound]: the MIC in test [1] (setting [6]) is not below 10000 µg/mL; in test [2] (setting [11]), not below 10000 µg/mL; in test [3] (Desulfovibrio desulfuricans, IFO13699, Table 2, derivatives having a carboxylate radical, heart infusion agar, 37° C., 24 hours, read-out: MIC), 1600 µg/mL (≈ 5890 µM).

Turning to `CCCCCCCCCc1ccc(OCCOCCN2CCCN=C(C)CC2=O)cc1` [Example 7, 1-nonylphenylpoly(2 moles)oxyethyleneoxyethyl-4-methyl-3,6,7,8-tetrahydro-1,5-diazocin-2-one], the MIC in test [1] (Escherichia coli, 24 h) is 200 µg/mL (≈ 464 µM); in test [2] (setting [4]), 12.5 µg/mL (≈ 29 µM); in test [3] (setting [5]), 12.5 µg/mL (≈ 29 µM).

`CCCCCCCC(=O)OCCN1CCN=C(C)CC1=O` [Example 24, 4-octoyloxyethyl-7-methyl-3,6-dihydro-2H-1,4-diazepin-5-one]: the MIC in test [1] (setting [7]) turned out to be 800 µg/mL (≈ 2700 µM); in test [2] (setting [4]), 200 µg/mL (≈ 675 µM); in test [3] (setting [5]), 25 µg/mL (≈ 84.3 µM).

On to `CCCCCCCC(=O)NCCN1CC[N+](CC(=O)[O-])=C(C)CC1=O` [4-octamidoethyl-7-methyl-1-azonia-4-azacyclohept-7-en-5-one-1-acetate], for which the MIC in test [1] (Escherichia coli, 24 h) is 100 µg/mL (≈ 283 µM); in test [2] (setting [11]), 800 µg/mL (≈ 2260 µM); in test [3] (setting [5]), 50 µg/mL (≈ 141 µM).

Take `CCCCCCCCCc1ccc(OCC(O)CNCCNCCNCCN2CC[N+](CC(=O)[O-])=CCC(C)C2=O)cc1` (stereo not drawn) [4-nonylphenoxy(2-hydroxy)propylaminoethylaminoethylaminoethyl-6-methyl-4-aza-1-azoniacyclooct-8-en-5-one-1-acetate]: the MIC stood at 400 µg/mL (≈ 662 µM) in test [1] (Escherichia coli, 24 h); 200 µg/mL (≈ 331 µM) in test [2] (setting [4]); 50 µg/mL (≈ 82.8 µM) in test [3] (setting [5]).

Consider `CC1=NCCN(CC(C)OCC(C)OCC(C)OCc2ccc(C)cc2)C(=O)C1` (stereo not drawn) [Example 39, 4-methylbenzylpoly(2moles)oxypropyleneoxypropyl-7-methyl-3,6-dihydro-2H-1,4-diazepin-5-one], for which the MIC is 200 µg/mL (≈ 494 µM) in test [1] (Escherichia coli, 24 h); 25 µg/mL (≈ 61.8 µM) in test [2] (setting [4]); 50 µg/mL (≈ 124 µM) in test [3] (setting [5]).
